Test results from patent US20240044921A1, “METHOD FOR EVALUATING BLOOD COAGULATION PERFORMANCE, AND METHOD FOR INSPECTING RISK OF THROMBOSIS” (FUJIMORI KOGYO CO., LTD., priority 2020, published 2024).

Tested on: whole blood
Assay: ROTEM blood coagulation analysis, blood collection tube with rubber stopper, Example 3
Assay type: cell-based, human
Conditions: heparan sulfate 1 μg/mL with calcium chloride, CTI 20 μg/mL, PKSI-527 40 μM (reagent (2))
Protocol: The present invention will be more specifically described below by referring to Examples, but the present invention is not limited to the embodiments below. The blood samples used in the Examples were collected from healthy humans unless otherwise described.
ROTEM (IL) was used to analyze blood coagulation.
Blood was collected using a blood collection tube (2 mL) containing 3.2% sodium citrate manufactured by Becton, Dickinson and Company. A rubber stopper is used for this blood collection tube. […]

## heparan sulfate
  coagulation-promoting effect of the rubber stopper: can be inhibited
